From patent US20260001853A1, “ASCORBIC ACID DERIVATIVE OR SALT THEREOF, AND COSMETIC THEREOF” (SEIWA KASEI COMPANY, LIMITED, priority 2022, published 2026)

Legend:
[1] = Stability test (residual rate by HPLC, odor, coloring); type: physicochemical; details: 1% aqueous solution; for Coloring / Odor: total score of 10 panelists
Description: With a dilute potassium hydroxide aqueous solution, 1% aqueous solution of each test sample was adjusted to pH 6, placed in a 50 mL screw tube, sealed, […], and then subjected to HPLC measurement (using a liquid chromatograph manufactured by Shimadzu Corporation) to determine the residual rate from the peak area. The residual rate, odor, and coloring degree were evaluated according to the following methods and criteria.
Residual rate: • ⊚: 90% or more • ◯: 80% or more, less than 90% • Δ: 60% or more, less than 80% • x: 20% or more, less than 60% • xx: Less than 20%
Evaluation was made by 10 panelists according to the following criteria. • 3: Almost odorless • 2: There is a slight strange odor. • 1: A strong odor is detected.
Based on the evaluation results, the following classification was made: • ⊚: Total score of 10 panelists is 25 or more • ◯: Total score of 10 panelists is 20-24 • Δ: Total score of 10 panelists is 16-19 • x: The total score of 10 panelists is 15 or less
Evaluation was made by 10 panelists according to the following criteria. • 3: Almost no change compared to immediately after preparation. • 2: Color changes compared to immediately after preparation. • 1: Strongly colored compared to immediately after preparation.
Based on the evaluation results, the following classification was made: • ◯: Total score of 10 panelists is 25 or more • Δ: Total score of 10 panelists is 16-24 • x: The total score of 10 panelists is 15 or less

[2] = tested on: Normal human dermal fibroblasts; assay: Collagen production promoting effect (ELISA of supernatant); type: cell-based; details: amount of collagen produced, % with control group taken as 100%; sample at 10 mmol/L or less, 48 hours, N=3
Description: Normal human dermal fibroblasts were prepared in D-MEM containing 5% (v/v) fetal bovine serum to a cell density of […] cells/well, and pre incubated on a 96-well plate for 24 hours. After removing the medium, samples prepared to a predetermined concentration in D-MEM containing 5% (v/v) fetal bovine serum were added to each well and cultured for 48 hours. After completion of the culture, the amount of free collagen in the supernatant was quantified by ELISA method. The measurement was performed with N=3.
(§1) The amount of collagen produced when the samples were measured at a concentration of 10 mmol/L or less was compared with that of the control group, and the results (% values when the control group is taken as 100%) are shown in Tables 15 to 17 based on the following criteria. • <100%: ± • 100-120%: + • 120%: ++

[3] = tested on: B16 melanoma 4A5 cells; assay: Melanin production inhibitory effect (theophylline-induced melanin production); type: cell-based, mouse; details: melanin production inhibition rate, sample at a concentration of 10 mM or less, 3 days culture, theophylline 1 mmol/L, N=4
Description: As a test of the whitening effect, the effect on theophylline-induced melanin production in B16 melanoma 4A5 cells was evaluated for the ascorbic acid derivatives of the present invention according to the following procedure. A similar evaluation was also performed for a known ascorbic acid derivative for comparison. The results are shown in Tables 9 to 11. • (1) B16 mouse melanoma 4A5 cells were seeded in a 48-well plate at a cell density of 8.0×10^3 cells/well. • (2) After culturing for 24 hours in Dulbecco's modified Eagle's medium (manufactured by SIGMA, hereinafter abbreviated as “D-MEM”) containing 10% fetal bovine serum, the medium was replaced with D-MEM containing 10% fetal bovine serum containing theophylline (final concentration 1 mmol/L) and a specified concentration of a sample. • (3) After culturing for 3 days in the presence of the sample, the medium was removed using an aspirator, distilled water was added, and the cells were disrupted by ultrasonication. • (4) The amount of protein was then quantified using a BCA protein assay kit (manufactured by PIERCE), and the amount of melanin produced was measured by an alkali solubilization method. Sodium hydroxide was added to the cell lysate to a final concentration of 1 mol/L, and the solution was dissolved by heating (60° C., 30 minutes), thereafter the absorbance at 405 nm was measured using a microplate reader. The amount of melanin was calculated from a calibration curve prepared using synthetic melanin (SIGMA) as a standard. The amount of melanin per unit protein was calculated by dividing the amount of melanin by the amount of protein. • (5) The melanin production inhibition rate was calculated using the following formula.
[In the formula, A represents the amount of melanin per unit protein (g/g) when the sample was added, B represents the amount of melanin per unit protein (g/g) in the normal group, and C represents the amount of melanin per unit protein (g/g) in the control group.]
The melanin production inhibition rate when the sample was measured at a concentration of 10 mM or less is expressed as follows. The measurement was performed with N=4. • <20%: ± • 20-40%: + • 40-60%: ++ • 60-100%: +++

[4] = tested on: Normal human dermal fibroblasts (NHDF); assay: Hyaluronic acid production promoting effect (ELISA of supernatant); type: cell-based; details: amount of hyaluronic acid produced, % with control group taken as 100%; sample at 10 mmol/L or less, 48 hours, N=3
Description: Normal human dermal fibroblasts (NHDF) were prepared in D-MEM containing 5% (v/v) fetal bovine serum to a cell density of 2.5× 10^4 cells/well, and then pre-incubated on a 96-well plate for 24 hours. After removing the medium, samples prepared in serum-free D-MEM were added to each well and cultured for 48 hours. After the culture was completed, the amount of hyaluronic acid in the supernatant was quantified by ELISA method. The measurement was performed with N=3.
as §1, with “of hyaluronic acid” for “of collagen”, “Tables 18” for “Tables 15”, “to 20” for “to 17”, “• 120-150%:” for “• 120%:”, “++ • 150%: +++” for “++”

[5] = pH 6, stored at 50° C., two weeks later

For `O=C1O[C@H]([C@@H](O)CO)C(O)=C1O` [Ascorbic acid], the Residual rate ([1]; pH 6, 50° C., initial) was “⊚ (⊚: 90% or more)”, the Coloring ([1]; pH 6, 50° C., initial) was “◯ (◯: Total score of 10 panelists is 25 or more)” and the Odor ([1]; pH 6, 50° C., initial) was “◯ (◯: Total score of 10 panelists is 20-24)”. The Residual rate [1, 5] was “Δ (Δ: 60% or more, less than 80%)”, the Coloring [1, 5] was “Δ (Δ: Total score of 10 panelists is 16-24)” and the Odor [1, 5] was “Δ (Δ: Total score of 10 panelists is 16-19)”.
With `CCCCOC1=C(OCC(C)(C)O)C(=O)O[C@@H]1[C@@H](O)CO` [Synthesis Example 4, 2-O-(2-hydroxyisobutyl)-3-O-butylascorbic acid] the “Collagen production promoting effect” value [2] was “++ (120%: ++)”.
In the case of `CCCCCCOC1=C(OCC(C)(C)O)C(=O)O[C@@H]1[C@@H](O)CO` [Synthesis Example 5, 2-O-(2-hydroxyisobutyl)-3-O-hexyl ascorbic acid], the “Melanin production inhibition effect” value [3] is reported as “+ (20-40%: +)” and the “Collagen production promoting effect” value [2] is reported as “++ (120%: ++)”.
In the case of `CCCCCCCCOC1=C(OCC(C)(C)O)C(=O)O[C@@H]1[C@@H](O)CO` [Synthesis Example 6, 2-O-(2-hydroxyisobutyl)-3-O-octyl ascorbic acid], the “Melanin production inhibition effect” value [3] is reported as “+++ (60-100%: +++)” and the “Collagen production promoting effect” value [2] is reported as “++ (120%: ++)”.
With `CCCCCCCCCCOC1=C(OCC(C)(C)O)C(=O)O[C@@H]1[C@@H](O)CO` [Synthesis Example 7, 2-O-(2-hydroxyisobutyl)-3-O-decyl ascorbic acid] the “Melanin production inhibition effect” value [3] was “+++ (60-100%: +++)” and the “Collagen production promoting effect” value [2] was “++ (120%: ++)”.
In the case of `CCCCCCCCCCCCCCOC1=C(OCC(C)(C)O)C(=O)O[C@@H]1[C@@H](O)CO` [Synthesis Example 9, 2-O-(2-hydroxyisobutyl)-3-O-tetradecyl ascorbic acid], the “Melanin production inhibition effect” value [3] is reported as “++ (40-60%: ++)”, the “Collagen production promoting effect” value [2] is reported as “++ (120%: ++)” and the “Hyaluronic acid production promoting effect” value [4] is reported as “+++ (150%: +++)”.
For `CCCCCCCCCCCCCCCCOC1=C(OCC(C)(C)O)C(=O)O[C@@H]1[C@@H](O)CO` [Synthesis Example 10, 2-O-(2-hydroxyisobutyl)-3-O-hexadecylascorbic acid], the “Melanin production inhibition effect” value [3] was “+ (20-40%: +)”.
For `C=CCOC1=C(OCC(C)(C)O)C(=O)O[C@@H]1[C@@H](O)CO` [Synthesis Example 11, 2-O-(2-hydroxyisobutyl)-3-O-allylascorbic acid], the “Melanin production inhibition effect” value [3] was “+++ (60-100%: +++)”, the “Collagen production promoting effect” value [2] was “++ (120%: ++)” and the “Hyaluronic acid production promoting effect” value [4] was “++ (120-150%: ++)”.
For `CC(C)(O)COC1=C(OCc2ccccc2)[C@@H]([C@@H](O)CO)OC1=O` [Synthesis Example 12, 2-O-(2-hydroxyisobutyl)-3-O-benzyl ascorbic acid], the “Melanin production inhibition effect” value [3] was “+++ (60-100%: +++)”, the “Collagen production promoting effect” value [2] was “++ (120%: ++)” and the “Hyaluronic acid production promoting effect” value [4] was “+++ (150%: +++)”.
In the case of `CC(C)(O)COC1=C(OCC(O)CO)[C@@H]([C@@H](O)CO)OC1=O` (stereo partly shown) [Synthesis Example 13, 2-O-(2-hydroxyisobutyl)-3-O-glyceryl ascorbic acid], the “Melanin production inhibition effect” value [3] is reported as “++ (40-60%: ++)”, the “Collagen production promoting effect” value [2] is reported as “++ (120%: ++)” and the “Hyaluronic acid production promoting effect” value [4] is reported as “++ (120-150%: ++)”.
In the case of `CCCCC(CC)COCC(O)COC1=C(OCC(C)(C)O)C(=O)OC1C(O)CO` (stereo not shown) [Synthesis Example 15, 2-O-(2-hydroxyisobutyl)-3-O-(2-hydroxy-3-O-ethylhexyl) ascorbic acid], the “Melanin production inhibition effect” value [3] is reported as “+ (20-40%: +)” and the “Collagen production promoting effect” value [2] is reported as “++ (120%: ++)”.
With `CCCCCCCCCCCCOCC(O)COC1=C(OCC(C)(C)O)C(=O)OC1C(O)CO` (stereo not shown) [Synthesis Example 16, 2-O-(2-hydroxyisobutyl)-3-O-(2-hydroxy-3-O-dodecyl) ascorbic acid] the “Melanin production inhibition effect” value [3] was “+ (20-40%: +)” and the “Hyaluronic acid production promoting effect” value [4] was “++ (120-150%: ++)”.
With `CCCCOC1=C(OCC(C)(C)O)[C@@H]([C@@H](O)CO)OC1=O` [Synthesis Example 19, 2-O-butyl-3-O-(2-hydroxyisobutyl) ascorbic acid] the “Melanin production inhibition effect” value [3] was “+ (20-40%: +)” and the “Collagen production promoting effect” value [2] was “++ (120%: ++)”.
With `CCCCCCOC1=C(OCC(C)(C)O)[C@@H]([C@@H](O)CO)OC1=O` [Synthesis Example 20, 2-O-hexyl-3-O-(2-hydroxyisobutyl) ascorbic acid] the “Melanin production inhibition effect” value [3] was “++ (40-60%: ++)” and the “Collagen production promoting effect” value [2] was “++ (120%: ++)”.
In the case of `CCCCCCCCOC1=C(OCC(C)(C)O)[C@@H]([C@@H](O)CO)OC1=O` [Synthesis Example 21, 2-O-octyl-3-O-(2-hydroxyisobutyl) ascorbic acid], the “Melanin production inhibition effect” value [3] is reported as “++ (40-60%: ++)”, the “Collagen production promoting effect” value [2] is reported as “++ (120%: ++)” and the “Hyaluronic acid production promoting effect” value [4] is reported as “+++ (150%: +++)”.
With `CCCCCCCCCCOC1=C(OCC(C)(C)O)[C@@H]([C@@H](O)CO)OC1=O` [Synthesis Example 22, 2-O-decyl-3-O-(2-hydroxyisobutyl) ascorbic acid] the “Melanin production inhibition effect” value [3] was “++ (40-60%: ++)”.
With `CCCCCCCCCCCCOC1=C(OCC(C)(C)O)[C@@H]([C@@H](O)CO)OC1=O` [Synthesis Example 23, 2-O-dodecyl-3-O-(2-hydroxyisobutyl) ascorbic acid] the “Melanin production inhibition effect” value [3] was “+++ (60-100%: +++)”, the “Collagen production promoting effect” value [2] was “++ (120%: ++)” and the “Hyaluronic acid production promoting effect” value [4] was “++ (120-150%: ++)”.
In the case of `CC(C)(O)COC1=C(OCC(O)CO)C(=O)O[C@@H]1[C@@H](O)CO` (stereo partly shown) [Synthesis Example 28, 2-O-glyceryl-3-O-(2-hydroxyisobutyl) ascorbic acid], the “Melanin production inhibition effect” value [3] is reported as “+ (20-40%: +)” and the “Hyaluronic acid production promoting effect” value [4] is reported as “++ (120-150%: ++)”.
With `CCCCOCC(O)COC1=C(OCC(C)(C)O)C(C(O)CO)OC1=O` (stereo not shown) [Synthesis Example 29, 2-O-(2-hydroxy-3-O-butyl)-3-O-(2-hydroxyisobutyl) ascorbic acid] the “Collagen production promoting effect” value [2] was “++ (120%: ++)”.
With `CCCCC(CC)COCC(O)COC1=C(OCC(C)(C)O)C(C(O)CO)OC1=O` (stereo not shown) [Synthesis Example 30, 2-O-(2-hydroxy-3-O-ethylhexyl)-3-O-(2-hydroxyisobutyl) ascorbic acid] the “Melanin production inhibition effect” value [3] was “+ (20-40%: +)” and the “Hyaluronic acid production promoting effect” value [4] was “+++ (150%: +++)”.
